According to patent US9630963B2, “Quinolone derivatives as fibroblast growth factor inhibitors” (Principia Biopharma, Inc., priority 2013, dated 2017):
pIC50: −log10 of the molar value.

Key:
[1] = tested on: SNU-16 cells; test: Inhibition of FGFR2-dependent cell growth (Cell-titer Glo); format: cell-based; conditions: Homo sapiens, SNU16 cells, 72 hrs incubation, cell viability by Cell-titer Glo
Method: The cell-based effects of FGFR inhibitors were determined by measuring inhibition of FGFR-dependent cell line growth. […] Percent inhibition of cell growth was calculated as a percentage of untreated cell viability. The percent inhibition was plotted as a function of log compound concentration. The IC50 was then calculated for each compound using Prism software from GraphPad.

[2] = target: human recombinant FGFR2 (Homo sapiens, UniProt P21802); test: FGFR family enzymatic activity assay (Caliper-based kinase assay), FGFR2; format: biochemical; conditions: FGFR2 0.1 nM, ATP 75 μM, peptide substrate 1 μM, room temperature 3 h
Sequence of human recombinant FGFR2 (P21802 22-821): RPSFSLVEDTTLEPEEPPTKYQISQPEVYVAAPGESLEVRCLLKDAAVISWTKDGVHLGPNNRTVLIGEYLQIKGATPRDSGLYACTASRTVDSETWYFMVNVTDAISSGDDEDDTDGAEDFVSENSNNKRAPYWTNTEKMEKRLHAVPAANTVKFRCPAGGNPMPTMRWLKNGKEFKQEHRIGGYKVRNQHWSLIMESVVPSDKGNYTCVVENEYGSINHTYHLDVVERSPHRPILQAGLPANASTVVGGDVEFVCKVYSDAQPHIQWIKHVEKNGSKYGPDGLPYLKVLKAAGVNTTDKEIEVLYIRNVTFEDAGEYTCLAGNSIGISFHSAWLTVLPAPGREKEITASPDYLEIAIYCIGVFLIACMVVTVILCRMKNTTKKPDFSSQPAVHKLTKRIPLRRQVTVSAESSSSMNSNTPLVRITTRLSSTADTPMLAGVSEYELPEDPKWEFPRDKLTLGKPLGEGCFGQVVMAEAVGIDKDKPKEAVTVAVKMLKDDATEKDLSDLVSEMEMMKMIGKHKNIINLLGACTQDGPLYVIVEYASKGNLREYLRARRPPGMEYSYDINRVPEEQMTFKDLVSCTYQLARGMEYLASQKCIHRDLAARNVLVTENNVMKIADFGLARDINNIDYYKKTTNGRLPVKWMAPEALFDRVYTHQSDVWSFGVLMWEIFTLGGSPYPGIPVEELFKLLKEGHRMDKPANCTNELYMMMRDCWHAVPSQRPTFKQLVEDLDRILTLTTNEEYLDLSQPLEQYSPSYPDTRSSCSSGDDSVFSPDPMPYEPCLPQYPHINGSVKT
Description: (§1) A Caliper-based kinase assay (Caliper Life Sciences, Hopkinton, Mass.) was used to measure inhibition of FGFR family (FGFR1, FGFR2, FGFR3, FGFR4) kinase activity of a compound of Formula (I′) or (I). […] This value is presented as the IC50.

[3] = target: human recombinant FGFR3 (Homo sapiens, UniProt P22607); test: FGFR family enzymatic activity assay (Caliper-based kinase assay), FGFR3; format: biochemical; conditions: FGFR3 0.9 nM, ATP 120 μM, peptide substrate 1 μM, room temperature 3 h
Sequence of human recombinant FGFR3 (P22607 23-806): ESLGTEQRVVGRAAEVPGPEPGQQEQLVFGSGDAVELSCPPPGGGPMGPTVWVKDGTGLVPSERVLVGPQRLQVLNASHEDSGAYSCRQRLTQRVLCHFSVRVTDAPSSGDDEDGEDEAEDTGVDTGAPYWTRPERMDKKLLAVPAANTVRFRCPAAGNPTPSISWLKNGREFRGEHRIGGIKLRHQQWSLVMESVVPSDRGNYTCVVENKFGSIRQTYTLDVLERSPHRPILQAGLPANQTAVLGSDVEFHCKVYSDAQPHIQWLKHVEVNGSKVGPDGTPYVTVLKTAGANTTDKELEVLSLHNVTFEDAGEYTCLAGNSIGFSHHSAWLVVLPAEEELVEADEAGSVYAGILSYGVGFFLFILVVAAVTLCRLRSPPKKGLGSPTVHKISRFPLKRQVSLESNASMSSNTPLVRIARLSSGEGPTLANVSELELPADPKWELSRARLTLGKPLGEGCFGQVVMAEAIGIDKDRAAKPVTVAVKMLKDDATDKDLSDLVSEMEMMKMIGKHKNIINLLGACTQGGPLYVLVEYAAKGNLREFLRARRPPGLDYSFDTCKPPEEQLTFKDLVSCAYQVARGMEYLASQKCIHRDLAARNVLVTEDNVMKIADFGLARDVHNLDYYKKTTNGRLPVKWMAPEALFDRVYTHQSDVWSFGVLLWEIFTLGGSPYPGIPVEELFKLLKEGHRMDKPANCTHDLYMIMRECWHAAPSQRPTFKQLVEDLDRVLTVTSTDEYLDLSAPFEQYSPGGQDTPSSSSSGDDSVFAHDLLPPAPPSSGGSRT
Description: as §1

[4] = target: human recombinant FGFR1 (Homo sapiens, UniProt P11362); test: FGFR family enzymatic activity assay (Caliper-based kinase assay), FGFR1; format: biochemical; conditions: FGFR1 0.5 nM, ATP 100 μM, peptide substrate 1 μM, room temperature 3 h
Sequence of human recombinant FGFR1 (P11362 22-822): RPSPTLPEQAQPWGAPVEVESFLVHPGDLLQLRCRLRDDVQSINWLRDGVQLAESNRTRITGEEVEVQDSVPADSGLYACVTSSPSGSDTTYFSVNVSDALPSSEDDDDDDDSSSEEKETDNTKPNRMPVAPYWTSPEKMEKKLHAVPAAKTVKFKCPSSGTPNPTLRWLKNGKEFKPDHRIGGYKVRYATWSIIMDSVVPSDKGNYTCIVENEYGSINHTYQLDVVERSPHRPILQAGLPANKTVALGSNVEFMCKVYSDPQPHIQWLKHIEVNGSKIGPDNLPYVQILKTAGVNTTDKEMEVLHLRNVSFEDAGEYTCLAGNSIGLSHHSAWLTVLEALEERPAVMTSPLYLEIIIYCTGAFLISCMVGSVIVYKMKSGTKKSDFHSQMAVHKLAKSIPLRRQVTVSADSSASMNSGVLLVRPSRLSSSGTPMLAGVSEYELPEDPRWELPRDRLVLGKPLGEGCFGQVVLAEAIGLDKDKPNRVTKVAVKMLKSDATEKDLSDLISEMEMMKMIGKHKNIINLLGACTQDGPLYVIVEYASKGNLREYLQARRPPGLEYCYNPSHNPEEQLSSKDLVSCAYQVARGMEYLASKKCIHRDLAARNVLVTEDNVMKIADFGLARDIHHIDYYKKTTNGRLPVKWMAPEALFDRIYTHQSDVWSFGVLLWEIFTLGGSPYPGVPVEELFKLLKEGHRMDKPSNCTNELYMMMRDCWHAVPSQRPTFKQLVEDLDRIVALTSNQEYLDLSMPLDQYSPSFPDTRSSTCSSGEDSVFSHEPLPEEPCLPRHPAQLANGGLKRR
Description: as §1

[5] = target: human recombinant FGFR4 (Homo sapiens, UniProt P22455); test: FGFR family enzymatic activity assay (Caliper-based kinase assay), FGFR4; format: biochemical; conditions: FGFR4 2 nM, ATP 250 μM, peptide substrate 1 μM, room temperature 3 h
Sequence of human recombinant FGFR4 (P22455 22-802): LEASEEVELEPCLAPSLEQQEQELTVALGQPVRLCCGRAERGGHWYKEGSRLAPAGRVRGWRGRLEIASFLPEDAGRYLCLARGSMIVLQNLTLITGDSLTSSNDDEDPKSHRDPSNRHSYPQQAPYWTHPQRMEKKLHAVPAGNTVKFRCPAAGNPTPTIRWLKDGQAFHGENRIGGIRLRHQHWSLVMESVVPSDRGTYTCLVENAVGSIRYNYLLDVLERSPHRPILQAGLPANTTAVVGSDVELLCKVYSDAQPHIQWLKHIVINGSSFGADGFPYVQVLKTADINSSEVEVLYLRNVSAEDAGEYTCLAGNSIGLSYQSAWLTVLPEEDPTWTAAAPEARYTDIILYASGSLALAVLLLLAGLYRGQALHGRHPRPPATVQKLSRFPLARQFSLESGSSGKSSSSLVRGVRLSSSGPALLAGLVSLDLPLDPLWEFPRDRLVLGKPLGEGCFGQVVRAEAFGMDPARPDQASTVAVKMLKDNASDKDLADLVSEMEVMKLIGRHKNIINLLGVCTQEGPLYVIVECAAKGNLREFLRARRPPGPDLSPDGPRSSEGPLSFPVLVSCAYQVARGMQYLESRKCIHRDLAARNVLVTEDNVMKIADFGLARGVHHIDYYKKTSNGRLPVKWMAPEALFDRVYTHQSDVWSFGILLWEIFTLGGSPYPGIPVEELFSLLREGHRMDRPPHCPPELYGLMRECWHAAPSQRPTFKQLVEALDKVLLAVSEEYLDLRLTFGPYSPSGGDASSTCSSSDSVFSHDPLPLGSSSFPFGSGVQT
Description: as §1

Compound	pIC50 [1]	pIC50 [2]	pIC50 [3]	pIC50 [4]	pIC50 [5]
C=CC(=O)Nc1ccc(CCn2c(=O)c(-c3c(Cl)c(OC)cc(OC)c3Cl)cc3cnc(NCC(C)(C)O)nc32)cc1 [Example 64, N-(4-(2-(6-(2,6-dichloro-3,5-dimethoxyphenyl)-2-((2-hydroxy-2-methylpropyl)-amino)-7-oxopyrido[2,3-d]pyrimidin-8(7H)-yl)ethyl)phenyl)acrylamide]	8.49	8.66	8.26	9.30	7.70
C=CC(=O)Nc1ccc(CCn2c(=O)c(-c3cc(OC)cc(OC)c3Cl)cc3cnc(NC(C)(C)CO)nc32)cc1 [Example 61, N-(4-(2-(6-(2-chloro-3,5-dimethoxyphenyl)-2-((1-hydroxy-2-methylpropan-2-yl)-amino)-7-oxopyrido[2,3-d]pyrimidin-8(7H)-yl)ethyl)phenyl)acrylamide]	8.17	8.47	8.04	8.82	7.19
C=CC(=O)Nc1ccc(CCn2c(=O)c(-c3cc(OC)cc(OC)c3Cl)cc3cnc(NCCN4CCN(CC(C)(C)O)CC4)nc32)cc1 [Example 68, N-(4-(2-(6-(2-chloro-3,5-dimethoxyphenyl)-2-((2-(4-(2-hydroxy-2-methylpropyl)-piperazin-1-yl)ethyl)amino)-7-oxopyrido[2,3-d]pyrimidin-8(7H)-yl)ethyl)phenyl)acrylamide]	8.51	8.80	8.09	9.15	7.27
C=CC(=O)Nc1ccc(CCn2c(=O)c(-c3c(Cl)c(OC)cc(OC)c3Cl)cc3cnc(NCCN4CCOCC4)nc32)cc1 [Example 44, N-(4-(2-(6-(2,6-dichloro-3,5-dimethoxyphenyl)-2-((2-morpholinoethyl)amino)-7-oxopyrido[2,3-d]pyrimidin-8(7H)-yl)ethyl)phenyl)acrylamide]	8.51	8.60	8.40	9.00	7.85
C=CC(=O)Nc1ccc(CCn2c(=O)c(-c3cc(OC)cc(OC)c3F)cc3cnc(NCCN4CCOCC4)nc32)cc1 [Example 43, N-(4-(2-(6-(2-fluoro-3,5-dimethoxyphenyl)-2-((2-morpholinoethyl)amino)-7-oxopyrido[2,3-d]pyrimidin-8(7H)-yl)ethyl)phenyl)acrylamide]	8.43	8.59	8.02	8.70	7.15
C=CC(=O)Nc1ccc(CCn2c(=O)c(-c3c(Cl)c(OC)cc(OC)c3Cl)cc3cnc(NC(CO)CO)nc32)cc1 [Example 76, N-(4-(2-(6-(2,6-dichloro-3,5-dimethoxyphenyl)-2-((1,3-dihydroxypropan-2-yl)-amino)-7-oxopyrido[2,3-d]pyrimidin-8(7H)-yl)ethyl)phenyl)acrylamide]	8.13	8.80	8.17	9.10	8.02

Next, values leading:

pIC50 [1]	pIC50 [2]	pIC50 [3]	pIC50 [4]	pIC50 [5]	Compound
8.51	9.05	8.49	9.15	8.01	C=CC(=O)Nc1ccc(CCn2c(=O)c(-c3c(Cl)c(OC)cc(OC)c3Cl)cc3cnc(NCC(O)CO)nc32)cc1 (stereo not shown) [Example 63, N-(4-(2-(6-(2,6-dichloro-3,5-dimethoxyphenyl)-2-((2,3-dihydroxypropyl)amino)-7-oxopyrido[2,3-d]pyrimidin-8(7H)-yl)ethyl)phenyl)acrylamide]
8.85	8.80	8.51	8.89	7.98	C=CC(=O)Nc1ccc(CCn2c(=O)c(-c3c(Cl)c(OC)cc(OC)c3Cl)cc3cnc(NC)nc32)cc1 [Example 4, N-(4-(2-(6-(2,6-dichloro-3,5-dimethoxyphenyl)-2-(methylamino)-7-oxopyrido[2,3-d]pyrimidin-8(7H)-yl)ethyl)phenyl)acrylamide]
8.92	8.26	8.27	9.05	7.38	C=CC(=O)Nc1ccc(CCn2c(=O)c(-c3cc(OC)cc(OC)c3Cl)cc3cnc(NCCN4CCOCC4)nc32)nc1 [Example 39, N-(6-(2-(6-(2-chloro-3,5-dimethoxyphenyl)-2-((2-morpholinoethyl)amino)-7-oxopyrido[2,3-d]pyrimidin-8(7H)-yl)ethyl)pyridin-3-yl)acrylamide]
8.52	8.77	8.34	9.22	7.86	C=CC(=O)Nc1ccc(CCn2c(=O)c(-c3c(Cl)c(OC)cc(OC)c3Cl)cc3cnc(NCCO)nc32)cc1 [Example 65, N-(4-(2-(6-(2,6-dichloro-3,5-dimethoxyphenyl)-2-((2-hydroxyethyl)amino)-7-oxopyrido[2,3-d]pyrimidin-8(7H)-yl)ethyl)phenyl)acrylamide]
8.62	8.38	8.27	8.74	7.89	C=CC(=O)Nc1ccc(CCn2c(=O)c(-c3c(Cl)c(OC)cc(OC)c3Cl)cc3cnc(NCCN4CCOCC4)nc32)nc1 [Example 51, N-(6-(2-(6-(2,6-dichloro-3,5-dimethoxyphenyl)-2-(2-morpholinoethylamino)-7-oxopyrido[2,3-d]pyrimidin-8(7H)-yl)ethyl)pyridin-3-yl)acrylamide]
8.66	9.22	8.48	9.40	7.83	C=CC(=O)Nc1ccc(CCn2c(=O)c(-c3c(Cl)c(OC)cc(OC)c3Cl)cc3cnc(NCC4CCN(C)CC4)nc32)cc1 [Example 75, N-(4-(2-(6-(2,6-dichloro-3,5-dimethoxyphenyl)-2-(((1-methylpiperidin-4-yl)methyl)-amino)-7-oxopyrido[2,3-d]pyrimidin-8(7H)-yl)ethyl)phenyl)acrylamide]
8.68	8.70	8.00	9.15	7.27	C=CC(=O)Nc1ccc(CCn2c(=O)c(-c3c(Cl)c(OC)cc(OC)c3Cl)cc3cnc(NC4CCN(C)CC4)nc32)cc1 [Example 62, N-(4-(2-(6-(2,6-dichloro-3,5-dimethoxyphenyl)-2-((1-methylpiperidin-4-yl)amino)-7-oxopyrido[2,3-d]pyrimidin-8(7H)-yl)ethyl)phenyl)acrylamide]
8.60	8.70	8.48	8.92	8.20	C=CC(=O)Nc1ccc(CCn2c(=O)c(-c3c(Cl)c(OC)cc(OC)c3Cl)cc3cnc(NC)nc32)nc1 [Example 38, N-(6-(2-(6-(2,6-dichloro-3,5-dimethoxyphenyl)-2-(methylamino)-7-oxopyrido[2,3-d]pyrimidin-8(7H)-yl)ethyl)pyridin-3-yl)acrylamide]
